US8648092B2, “Imidazo[1,2-a]pyridine derivatives: preparation and pharmaceutical applications” (MEI Pharma, priority 2005, dated 2014)

Key:
Colo205 cells = assay: Cell-based proliferation assay for determination of GI50 values (CyQUANT); design: species or system human
Experimental: Cell-Based Proliferation Assay for Determination of GI50 Values
Human cancer cell lines (e.g. Colo205) were obtained from ATCC. Colo205 cells were cultivated in RPMI 1640 containing 2 mM L-Glutamine, 5% FBS, 1.0 mM Na Pyruvate. Colo205 cells were seeded in 96-wells plate at 5000 cells per well. The plates were incubated at 37° C., 5% CO2, for 24 h. Cells were treated with compounds at various concentrations for 96 h. Cell growth was then monitored using CyQUANT® cell proliferation assay (Invitrogen Pte Ltd). Dose response curves were plotted to determine GI50 values for the compounds using XL-fit (ID Business Solution, Emeryville, Calif.). GI50 is defined as the concentration of compound required for 50% inhibition of cell growth.
The cellular or growth inhibition activity results of representative compounds are shown in Table 4 below (unit in the table is micromolar).

[1] = biological target: HDAC1 enzyme (recombinant GST-HDAC1) (Homo sapiens (Human), UniProt Q13547); assay: In vitro HDAC assay for determination of IC50 values (BIOMOL fluorescent-based HDAC activity assay); format: biochemical; details: Flur de lys substrate, 2 h room temperature, read-out: IC50 (HDAC 1)
Experimental: Biological Testing and Enzyme Assays Recombinant GST-HDAC1 Protein Expression and Purification
Human cDNA library was prepared using cultured SW620 cells. Amplification of human HDAC1 coding region from this cDNA library was cloned separately into the baculovirus expression pDEST20 vector (GATEWAY Cloning Technology, Invitrogen Pte Ltd). The pDEST20-HDAC1 construct was confirmed by DNA sequencing. Recombinant baculovirus was prepared using the Bac-To-Bac method following the manufacturer's instruction (Invitrogen Pte Ltd).
Expression of GST-HDAC1 was done by infecting SF9 cells (Invitrogen Pte Ltd) with pDEST20-HDAC1 baculovirus at MOI=1 for 48 h. Soluble cell lysate was incubated with pre-equilibrated Glutathione Sepharose 4B beads (Amersham) at 4° C. for 2 h. The beads were washed with PBS buffer for 3 times. The GST-HDAC1 protein was eluted by elution buffer containing 50 mM Tris, pH8.0, 150 mM NaCl, 1% Triton X-100 and 10 mM or 20 mM reduced Glutathione. The purified GST-HDAC1 protein was dialyzed with HDAC storage buffer containing 10 mM Tris, pH7.5, 100 mM NaCl and 3 mM MgCl2. 20% Glycerol was added to purified GST-HDAC1 protein before storage at −80° C.
In Vitro HDAC Assay for Determination of IC50 Values
The assay has been carried out in 96 well format and the BIOMOL fluorescent-based HDAC activity assay has been applied. […] Flur de lys Developer was added and the reaction was incubated for 10 min. Briefly, deacetylation of the substrate sensitizes it to the developer, which then generates a fluorophore. The fluorophore is excited with 360 nm light and the emitted light (460 nm) is detected on a fluorometric plate reader (Tecan Ultra Microplate detection system, Tecan Group Ltd.).
The analytical software, Prism 4.0 (GraphPad Software Inc) has been used to generate IC50 from a series of data.

[2] = Homo sapiens, COLO 205, 96 h treatment
[3] = Homo sapiens, COLO 205, 96 h, 96 h treatment

Chain of HDAC1 enzyme (recombinant GST-HDAC1) (Q13547 whole entry): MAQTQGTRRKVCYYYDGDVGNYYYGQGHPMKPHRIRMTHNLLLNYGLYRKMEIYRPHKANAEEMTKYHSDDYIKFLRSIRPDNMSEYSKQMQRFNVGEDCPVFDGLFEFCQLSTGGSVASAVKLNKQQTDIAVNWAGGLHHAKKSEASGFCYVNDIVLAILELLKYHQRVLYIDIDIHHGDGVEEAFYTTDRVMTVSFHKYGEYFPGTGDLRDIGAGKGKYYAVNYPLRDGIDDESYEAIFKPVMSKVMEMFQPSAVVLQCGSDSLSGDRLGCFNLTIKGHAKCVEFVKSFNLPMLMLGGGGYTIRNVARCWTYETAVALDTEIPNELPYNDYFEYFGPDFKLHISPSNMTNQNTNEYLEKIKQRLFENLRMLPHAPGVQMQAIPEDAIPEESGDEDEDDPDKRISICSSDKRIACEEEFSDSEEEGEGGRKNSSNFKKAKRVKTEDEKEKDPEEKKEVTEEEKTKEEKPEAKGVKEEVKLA

| IC50 [1] [nM] | GI50 (Colo205 cells; [2]) [nM] | GI50 (Colo205 cells; [3]) [nM] | Structure (SMILES) | GI50 (Colo205 cells; 96 h treatment) [nM] |
| --- | --- | --- | --- | --- |
| 30 | 140 |  | CCCCc1nc2cc(/C=C/C(=O)NO)ccn2c1CN(CC)CCC(C)(C)C [Compound 117, 3-(2-Butyl-3-{[(3,3-dimethyl-butyl)-ethyl-amino]-methyl}-imidazo[1,2-a]pyridin-7-yl)-N-hydroxy-acrylamide] |  |
| 780 | 24000 |  | CCCCCCc1nc2ccc(/C=C/C(=O)NO)cn2c1NCCC(=O)NCCN(C)C [Compound 19, (E)-3-(3-(3-(2-(dimethylamino)ethylamino)-3-oxopropylamino)-2-hexylimidazo[1,2-a]pyridin-6-yl)-N-hydroxyacrylamide] |  |
| 50 | 210 |  | CC(C)Cc1nc2cc(/C=C/C(=O)NO)ccn2c1CNC(C)(C)C [Compound 133, 3-[3-(tert-Butylamino-methyl)-2-isobutyl-imidazo[1,2-a]pyridin-7-yl]-N-hydroxy-acrylamide] |  |
| 240 | 1200 |  | CCCN(CC)Cc1c(-c2ccccc2)nc2cc(/C=C/C(=O)NO)ccn12 [Compound 52, 3-{3-[(Ethyl-propyl-amino)-methyl]-2-phenyl-imidazo[1,2-a]pyridin-7-yl}-N-hydroxy-acrylamide] |  |
|  | 39000 |  | COCCNc1c(CCC(=O)O)nc2ccc(/C=C/C(=O)NO)cn12 [Compound 10, 3-[6-(2-Hydroxycarbamoyl-vinyl)-3-(2-methoxy-ethylamino)-imidazo[1,2-a]pyridin-2-yl]-propionic acid] |  |
| 70 |  | 480 | CCN(CCC(C)(C)C)Cc1c(C(C)(C)C)nc2cc(/C=C/C(=O)NO)ccn12 [Compound 92, 3-(2-tert-Butyl-3-{[(3,3-dimethyl-butyl)-ethyl-amino]-methyl}-imidazo[1,2a]pyridin-7-yl)-N-hydroxy-acrylamide] |  |
| 20 | 180 |  | CCCCNCc1c(CCCC)nc2cc(/C=C/C(=O)NO)ccn12 [Compound 72, 3-(2-Butyl-3-butylaminomethyl-imidazo[1,2-a]pyridin-7-yl)-N-hydroxy-acrylamide] |  |
| 6000 | > 10000 |  | CCc1nc2ccc(/C=C/C(=O)NO)cn2c1NCCOC [Compound 11, 3-[2-Ethyl-3-(2-methoxy-ethylamino)-imidazo[1,2-a]pyridin-6-yl]-N-hydroxy-acrylamide] |  |
| 20 | 100 |  | CCc1nc2cc(/C=C/C(=O)NO)ccn2c1CN(CC)CCC(C)C [Compound 139, 3-(2-Ethyl-3-{[ethyl-(3-methyl-butyl)-amino]-methyl}-imidazo[1,2-a]pyridin-7-yl)-N-hydroxy-acrylamide] |  |
| 40 |  | 230 | CCCCc1nc2cc(/C=C/C(=O)NO)ccn2c1CN(C)C [Compound 83, 3-(2-Butyl-3-dimethylaminomethyl-imidazo[1,2-a]pyridin-7-yl)-N-hydroxy-acrylamide] |  |
| 370 | 3400 |  | CCN(Cc1c(C(C)(C)C)nc2cc(/C=C/C(=O)NO)ccn12)CC1CCOC1 (stereo not shown) [Compound 96, 3-(2-tert-Butyl-3-{[ethyl-(tetrahydro-furan-3-ylmethyl)-amino]-methyl}-imidazo[1,2-a]pyridin-7-yl)-N-hydroxy-acrylamide] |  |
| 790 | 1900 |  | O=C(/C=C/c1ccc2nc(CCc3ccccc3)c(Nc3ccc(N4CCCCC4)cc3)n2c1)NO [Compound 3, N-Hydroxy-3-[2-phenethyl-3-(4-piperidin-1-yl-phenylamino)-imidazo[1,2-a]pyridin-6-yl]-acrylamide] |  |
| 130 | 750 |  | CCCCCN(CC)Cc1c(C(C)(C)C)nc2cc(/C=C/C(=O)NO)ccn12 [Compound 87, 3-{2-tert-Butyl-3-[(ethyl-pentyl-amino)-methyl]-imidazo[1,2-a]pyridin-7-yl}-N-hydroxy-acrylamide] |  |
| > 10000 | 41000 |  | CCN(CC)Cc1c(-c2ccccc2)nc2ccc(/C=C/C(=O)NO)cn12 [Compound 103, 3-(3-Diethylaminomethyl-2-phenyl-imidazo[1,2a]pyridin-6-yl)-N-hydroxy-acrylamide] |  |
| 410 | 2300 |  | CCC(CC)CN(C)Cc1c(C(C)(C)C)nc2cc(/C=C/C(=O)NO)ccn12 [Compound 107, 3-(2-tert-Butyl-3-{[(2-ethyl-butyl)-methyl-amino]-methyl}-imidazo[1,2-a]pyridin-7-yl)-N-hydroxy-acrylamide] |  |
| 720 | 8900 |  | CCCCNc1c(CCCC)nc2ccc(/C=C/C(=O)NO)cn12 [Compound 13, 3-(2-Butyl-3-butylamino-imidazo[1,2-a]pyridin-6-yl)-N-hydroxy-acrylamide] |  |
| 40 | 130 |  | CCN(CCC(C)(C)C)Cc1c(CCC(C)C)nc2cc(/C=C/C(=O)NO)ccn12 [Compound 143, 3-[3-{[(3,3-Dimethyl-butyl)-ethyl-amino]-methyl}-2-(3-methyl-butyl)-imidazo[1,2-a]pyridin-7-yl]-N-hydroxy-acrylamide] |  |
|  | 110 |  | CCN(CCC(C)C)Cc1c(C)nc2cc(/C=C/C(=O)NO)ccn12 [Compound 124, 3-(3-{[Ethyl-(3-methyl-butyl)-amino]-methyl}-2-methyl-imidazo[1,2a]pyridin-7-yl)-N-hydroxy-acrylamide] |  |
|  |  | 2700 | CCCCCCCN(CC)Cc1c(C(C)(C)C)nc2cc(/C=C/C(=O)NO)ccn12 [Compound 94, 3-{2-tert-Butyl-3-[(ethyl-heptyl-amino)-methyl]-imidazo[1,2-a]pyridin-7-yl}-N-hydroxy-acrylamide] |  |
|  | 2200 |  | CCC(C)CN(CC)Cc1c(C(C)(C)C)nc2cc(/C=C/C(=O)NO)ccn12 (stereo not shown) [Compound 88, 3-(2-tert-Butyl-3-{[ethyl-(2-methyl-butyl)-amino]-methyl}-imidazo[1,2-a]pyridin-7-yl)-N-hydroxy-acrylamide] |  |
|  | 130 |  | CCN(CCC(C)C)Cc1c(CCC(C)C)nc2cc(/C=C/C(=O)NO)ccn12 [Compound 142, 3-[3-{[Ethyl-(3-methyl-butyl)-amino]-methyl}-2-(3-methyl-butyl)-imidazo[1,2-a]pyridin-7-yl]-N-hydroxy-acrylamide] |  |
|  | 1900 |  | CCCCCCc1nc2cc(/C=C/C(=O)NO)ccn2c1NCCC(=O)N(C)CC#N [Compound 31, 3-{3-[2-(Cyanomethyl-methyl-carbamoyl)-ethylamino]-2-hexyl-imidazo[1,2-a]pyridin-7-yl}-N-hydroxy-acrylamide] |  |
|  | 20000 |  | CC(C)(C)Nc1c(C(=O)O)nc2ccc(/C=C/C(=O)NO)cn12 [Compound 12, 3-tert-Butylamino-6-(2-hydroxycarbamoyl-vinyl)-imidazo[1,2-a]pyridine-2-carboxylic acid] |  |
|  | 800 |  | CCCCN(CCCC)Cc1c(C)nc2cc(/C=C/C(=O)NO)ccn12 [Compound 81, 3-(3-Dibutylaminomethyl-2-methyl-imidazo[1,2-a]pyridin-7-yl)-N-hydroxy-acrylamide] |  |
|  |  | 1500 | CCC(CC)NCc1c(C(C)(C)C)nc2cc(C=CC(=O)NO)ccn12 [Compound 68, 3-{2-tert-Butyl-3-[(1-ethyl-propylamino)-methyl]-imidazo[1,2-a]pyridin-7-yl}-N-hydroxy-acrylamide] |  |
|  | 150 |  | CCN(CCC(C)C)Cc1c(CC(C)C)nc2cc(/C=C/C(=O)NO)ccn12 [Compound 135, 3-(3-{[Ethyl-(3-methyl-butyl)-amino]-methyl}-2-isobutyl-imidazo[1,2-a]pyridin-7-yl)-N-hydroxy-acrylamide] |  |
|  | 170 |  | CCN(CCC(C)(C)C)Cc1c(CC(C)C)nc2cc(/C=C/C(=O)NO)ccn12 [Compound 136, 3-(3-{[(3,3-Dimethyl-butyl)-ethyl-amino]-methyl}-2-isobutyl-imidazo[1,2-a]pyridin-7-yl)-N-hydroxy-acrylamide] |  |
|  |  | 370 | CCCCc1nc2cc(/C=C/C(=O)NO)ccn2c1CN(CC)CC(C)CCC (stereo not shown) [Compound 113, 3-(2-Butyl-3-{[ethyl-(2-methyl-pentyl)-amino]-methyl}-imidazo[1,2-a]pyridin-7-yl)-N-hydroxy-acrylamide] |  |

| Structure (SMILES) | IC50 [1] [nM] | GI50 (Colo205 cells; [2]) [nM] | GI50 (Colo205 cells; [3]) [nM] | GI50 (Colo205 cells; 96 h treatment) [nM] |
| --- | --- | --- | --- | --- |
| CCN(Cc1c(C)nc2cc(C=CC(=O)NO)ccn12)CC(C)(C)C [Compound 111, 3-(3-{[(2,2-Dimethyl-propyl)-ethyl-amino]-methyl}-2-methyl-imidazo[1,2a]pyridin-7-yl)-N-hydroxy-acrylamide] | 50 |  |  | 600 |
